Reference: patent publication US20200239530A1, “COMPOUNDS AND METHODS OF MODULATING PROTEIN DEGRADATION” (Vividion Therapeutics, Inc., priority 2017, published 2020)

Tests used:
Experiment in all cases: Cysteine liganding, probe competition
Format in all cases: binding
[1] = target: T1, DIP2A Disco-interacting protein 2 homolog A (Homo sapiens, UniProt Q14689); details: for Liganded: DIP2A Res# 6, uniprot Q14689
T1 construct: 200 μL of lysate containing 5 mg/ml proteome was treated with 2 μL of 100× compound stock; endogenous in cells
T1 sequence (Q14689 whole entry): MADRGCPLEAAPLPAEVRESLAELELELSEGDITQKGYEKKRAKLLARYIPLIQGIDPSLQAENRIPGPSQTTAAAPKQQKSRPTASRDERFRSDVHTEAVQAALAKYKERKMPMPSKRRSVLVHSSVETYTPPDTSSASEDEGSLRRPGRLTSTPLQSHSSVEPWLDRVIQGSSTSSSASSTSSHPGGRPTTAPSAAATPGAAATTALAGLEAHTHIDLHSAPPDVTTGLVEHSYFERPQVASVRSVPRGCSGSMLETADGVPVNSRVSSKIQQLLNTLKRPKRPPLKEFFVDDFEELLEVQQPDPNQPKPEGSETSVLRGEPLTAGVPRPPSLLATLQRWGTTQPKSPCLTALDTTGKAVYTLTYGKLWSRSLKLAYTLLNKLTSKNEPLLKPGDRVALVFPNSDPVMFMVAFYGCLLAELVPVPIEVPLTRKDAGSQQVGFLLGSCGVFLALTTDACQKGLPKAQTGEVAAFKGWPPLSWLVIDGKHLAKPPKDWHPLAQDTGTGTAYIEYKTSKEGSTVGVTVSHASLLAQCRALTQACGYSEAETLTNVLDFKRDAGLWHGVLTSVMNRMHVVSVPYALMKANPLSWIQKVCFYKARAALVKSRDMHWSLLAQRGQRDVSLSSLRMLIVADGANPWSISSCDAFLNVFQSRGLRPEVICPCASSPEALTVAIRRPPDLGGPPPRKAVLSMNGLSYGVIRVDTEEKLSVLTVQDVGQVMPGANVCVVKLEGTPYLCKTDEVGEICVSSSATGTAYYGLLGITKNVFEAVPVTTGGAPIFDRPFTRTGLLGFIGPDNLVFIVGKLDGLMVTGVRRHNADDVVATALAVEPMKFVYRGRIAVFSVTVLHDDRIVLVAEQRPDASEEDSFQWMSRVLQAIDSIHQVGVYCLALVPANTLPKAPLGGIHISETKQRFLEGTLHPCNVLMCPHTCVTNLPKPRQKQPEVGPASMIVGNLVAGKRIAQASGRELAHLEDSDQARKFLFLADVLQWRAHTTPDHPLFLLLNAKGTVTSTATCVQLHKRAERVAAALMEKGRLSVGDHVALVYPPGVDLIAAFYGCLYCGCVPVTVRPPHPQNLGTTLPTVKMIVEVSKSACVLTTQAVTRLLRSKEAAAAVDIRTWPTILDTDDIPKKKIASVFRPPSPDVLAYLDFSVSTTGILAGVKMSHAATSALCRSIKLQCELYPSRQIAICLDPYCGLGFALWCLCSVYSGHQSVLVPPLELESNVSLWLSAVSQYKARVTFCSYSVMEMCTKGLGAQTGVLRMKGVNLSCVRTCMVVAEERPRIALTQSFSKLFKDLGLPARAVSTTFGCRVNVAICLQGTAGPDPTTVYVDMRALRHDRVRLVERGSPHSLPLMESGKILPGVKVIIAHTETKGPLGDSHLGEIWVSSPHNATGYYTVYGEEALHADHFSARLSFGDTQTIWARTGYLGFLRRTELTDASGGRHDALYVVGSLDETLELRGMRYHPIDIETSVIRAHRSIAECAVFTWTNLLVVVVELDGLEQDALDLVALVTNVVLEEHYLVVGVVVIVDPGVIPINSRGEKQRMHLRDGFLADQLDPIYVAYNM
Summary of the method: (§1)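 Read-out is loss of desthiobiotin iodoacetamide labelling at cysteines, measured on streptavidin-enriched tryptic peptides. Compound preincubation ran 1 hr at 25° C in PBS lysate holding 5 mg/ml proteome before the probe was added.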

[2] = target: T2, KBTBD8 Kelch repeat and BTB domain-containing protein 8 (Homo sapiens, UniProt Q8NFY9); details: for 100 Max / 100 ave / 500 Max / 500 ave: uniprot Q8NFY9
T2 construct: Cells were resuspended in cold PBS on ice and sonicated with a probe sonicator to achieve lysis; endogenous in cells
T2 sequence (Q8NFY9 1-601): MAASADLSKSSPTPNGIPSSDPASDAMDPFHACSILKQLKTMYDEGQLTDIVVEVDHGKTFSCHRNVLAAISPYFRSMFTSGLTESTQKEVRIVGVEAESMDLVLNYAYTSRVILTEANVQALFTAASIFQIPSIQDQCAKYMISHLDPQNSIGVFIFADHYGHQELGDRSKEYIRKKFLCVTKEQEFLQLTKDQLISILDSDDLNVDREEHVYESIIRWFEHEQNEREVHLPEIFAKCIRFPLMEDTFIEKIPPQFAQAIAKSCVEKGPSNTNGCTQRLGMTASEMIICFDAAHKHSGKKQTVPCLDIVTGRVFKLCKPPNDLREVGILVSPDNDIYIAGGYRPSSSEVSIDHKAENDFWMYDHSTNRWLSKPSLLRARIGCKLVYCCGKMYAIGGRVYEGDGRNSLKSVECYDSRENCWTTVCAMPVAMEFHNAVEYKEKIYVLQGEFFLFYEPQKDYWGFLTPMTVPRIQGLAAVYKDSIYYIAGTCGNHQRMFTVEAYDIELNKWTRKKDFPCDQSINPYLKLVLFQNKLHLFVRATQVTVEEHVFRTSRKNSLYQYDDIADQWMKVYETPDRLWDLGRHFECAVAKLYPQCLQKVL
Summary of the method: as §1

[3] = target: T3, MT-ND5 NADH-ubiquinone oxidoreductase chain 5 (Homo sapiens, UniProt P03915); details: for Liganded: MT-ND5 Res# 518, uniprot P03915
T3 construct: Cells were resuspended in cold PBS on ice and sonicated with a probe sonicator to achieve lysis; endogenous in cells
T3 sequence (P03915 whole entry): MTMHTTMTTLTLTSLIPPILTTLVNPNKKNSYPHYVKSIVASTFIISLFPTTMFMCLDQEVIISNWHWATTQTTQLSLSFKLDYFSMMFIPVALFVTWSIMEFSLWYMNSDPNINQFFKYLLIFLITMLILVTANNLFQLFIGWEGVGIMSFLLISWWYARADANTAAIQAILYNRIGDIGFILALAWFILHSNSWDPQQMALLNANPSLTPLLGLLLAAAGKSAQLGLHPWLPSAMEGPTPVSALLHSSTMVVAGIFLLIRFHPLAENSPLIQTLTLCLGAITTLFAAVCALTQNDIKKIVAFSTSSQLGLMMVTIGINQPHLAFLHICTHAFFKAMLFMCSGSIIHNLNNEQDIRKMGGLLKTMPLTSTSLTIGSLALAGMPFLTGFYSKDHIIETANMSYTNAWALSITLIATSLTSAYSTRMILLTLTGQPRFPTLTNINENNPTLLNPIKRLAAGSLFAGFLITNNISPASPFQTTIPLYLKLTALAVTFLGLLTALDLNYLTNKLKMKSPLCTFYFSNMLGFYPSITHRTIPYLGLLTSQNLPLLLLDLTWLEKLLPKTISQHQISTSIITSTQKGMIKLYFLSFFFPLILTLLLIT
Summary of the method: as §1

RNF7 RING-box protein 2 = target: T4, RNF7 RING-box protein 2 (Homo sapiens, UniProt Q9UBF6)
T4 construct: Cells were resuspended in cold PBS on ice and sonicated with a probe sonicator to achieve lysis; endogenous in cells
T4 sequence (Q9UBF6 1-113): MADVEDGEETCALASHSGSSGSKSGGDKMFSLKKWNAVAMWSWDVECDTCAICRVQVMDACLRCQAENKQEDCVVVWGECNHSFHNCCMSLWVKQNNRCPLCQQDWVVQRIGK
Summary of the method: as §1

[4] = target: T5, SETD1A Histone-lysine N-methyltransferase SETD1A (Homo sapiens, UniProt O15047)
T5 construct: Cells were resuspended in cold PBS on ice and sonicated with a probe sonicator to achieve lysis; endogenous in cells
T5 sequence (O15047 whole entry): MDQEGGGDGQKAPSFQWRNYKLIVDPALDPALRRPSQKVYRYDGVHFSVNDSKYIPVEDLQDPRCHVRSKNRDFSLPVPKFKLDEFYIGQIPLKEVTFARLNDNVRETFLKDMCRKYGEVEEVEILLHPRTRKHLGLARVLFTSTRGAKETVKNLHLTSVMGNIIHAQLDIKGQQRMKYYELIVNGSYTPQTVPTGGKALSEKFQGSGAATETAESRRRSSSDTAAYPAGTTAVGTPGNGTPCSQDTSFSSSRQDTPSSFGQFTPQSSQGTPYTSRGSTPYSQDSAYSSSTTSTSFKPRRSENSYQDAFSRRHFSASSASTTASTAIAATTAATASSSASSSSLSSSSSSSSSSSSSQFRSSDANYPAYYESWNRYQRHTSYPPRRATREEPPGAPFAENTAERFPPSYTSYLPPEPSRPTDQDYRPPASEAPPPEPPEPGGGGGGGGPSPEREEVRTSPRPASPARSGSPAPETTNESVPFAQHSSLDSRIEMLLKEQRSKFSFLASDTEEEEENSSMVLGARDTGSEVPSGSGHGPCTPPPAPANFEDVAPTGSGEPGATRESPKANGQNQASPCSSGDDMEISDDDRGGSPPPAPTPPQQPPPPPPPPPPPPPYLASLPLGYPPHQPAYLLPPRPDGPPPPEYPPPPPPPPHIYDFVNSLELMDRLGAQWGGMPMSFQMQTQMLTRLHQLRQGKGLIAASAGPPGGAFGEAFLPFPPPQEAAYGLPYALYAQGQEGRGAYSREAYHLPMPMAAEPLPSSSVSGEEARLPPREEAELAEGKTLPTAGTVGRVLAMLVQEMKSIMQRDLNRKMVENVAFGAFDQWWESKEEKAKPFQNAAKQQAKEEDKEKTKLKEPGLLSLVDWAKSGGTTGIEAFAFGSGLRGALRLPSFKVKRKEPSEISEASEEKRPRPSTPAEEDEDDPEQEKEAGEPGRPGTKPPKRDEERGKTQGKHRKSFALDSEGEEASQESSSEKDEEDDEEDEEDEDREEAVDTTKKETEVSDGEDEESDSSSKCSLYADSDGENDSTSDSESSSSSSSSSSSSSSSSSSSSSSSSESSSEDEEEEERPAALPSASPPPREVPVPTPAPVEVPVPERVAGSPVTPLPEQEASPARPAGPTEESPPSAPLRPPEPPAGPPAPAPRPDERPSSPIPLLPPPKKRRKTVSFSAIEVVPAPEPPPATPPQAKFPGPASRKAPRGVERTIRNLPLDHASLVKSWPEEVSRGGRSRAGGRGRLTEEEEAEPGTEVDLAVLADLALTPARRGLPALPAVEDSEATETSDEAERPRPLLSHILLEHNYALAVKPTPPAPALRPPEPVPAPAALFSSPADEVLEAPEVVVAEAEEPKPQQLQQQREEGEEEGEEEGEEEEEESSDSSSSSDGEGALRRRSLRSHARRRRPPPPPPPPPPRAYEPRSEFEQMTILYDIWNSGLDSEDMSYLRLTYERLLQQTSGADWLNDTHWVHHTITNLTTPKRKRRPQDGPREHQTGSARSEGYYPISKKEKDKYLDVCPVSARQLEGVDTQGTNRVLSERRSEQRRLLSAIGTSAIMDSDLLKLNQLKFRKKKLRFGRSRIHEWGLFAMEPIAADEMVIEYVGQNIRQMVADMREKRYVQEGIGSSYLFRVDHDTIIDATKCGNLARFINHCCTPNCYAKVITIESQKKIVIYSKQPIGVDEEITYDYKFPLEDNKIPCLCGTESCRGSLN
Summary of the method: as §1

[5] = target: T6, TUBA3D Tubulin alpha-3C/D chain (Homo sapiens, UniProt P0DPH8)
T6 construct: Cells were resuspended in cold PBS on ice and sonicated with a probe sonicator to achieve lysis; endogenous in cells
T6 sequence (P0DPH8 whole entry, looked up): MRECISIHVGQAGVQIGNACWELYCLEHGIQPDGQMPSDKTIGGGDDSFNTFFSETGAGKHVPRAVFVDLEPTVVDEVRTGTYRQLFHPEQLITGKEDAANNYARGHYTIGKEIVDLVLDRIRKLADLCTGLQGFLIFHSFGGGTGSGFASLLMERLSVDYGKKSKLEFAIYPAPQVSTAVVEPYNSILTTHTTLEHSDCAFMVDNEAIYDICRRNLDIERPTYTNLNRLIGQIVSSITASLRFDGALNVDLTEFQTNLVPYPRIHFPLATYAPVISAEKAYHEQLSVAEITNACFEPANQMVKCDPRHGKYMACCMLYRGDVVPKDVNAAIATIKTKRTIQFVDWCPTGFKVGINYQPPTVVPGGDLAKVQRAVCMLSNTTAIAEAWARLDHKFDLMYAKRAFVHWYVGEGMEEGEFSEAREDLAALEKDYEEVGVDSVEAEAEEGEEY
Summary of the method: as §1

[6] = target: T7, UBR5 E3 ubiquitin-protein ligase UBR5 (Homo sapiens, UniProt O95071)
T7 construct: Cells were resuspended in cold PBS on ice and sonicated with a probe sonicator to achieve lysis; endogenous in cells
Summary of the method: as §1

COc1ccc2c(c1)CCCN2C(=O)CCl [KB02]
Liganded [1]: YES | Liganded ([2]; KBTBD8 Res# 181, uniprot Q8NFY9): YES | 100 Max [2]: 38.4 | 100 ave [2]: 36.7 | 500 Max [2]: 79.2 | 500 ave [2]: 79.2 | Liganded [3]: YES | Liganded (RNF7 RING-box protein 2; RNF7 Res# 88, uniprot Q9UBF6): YES | Liganded ([4]; SETD1A Res# 1648, uniprot O15047): YES | Liganded ([5]; TUBA3D Res# 4, uniprot Q13748): YES | Liganded ([5]; TUBA3D Res# 20, uniprot Q13748): YES | Liganded ([6]; UBR5 Res# 2314, uniprot O95071): YES

O=C(CCl)Nc1cc(C(F)(F)F)cc(C(F)(F)F)c1 [KBO3]
Liganded [1]: YES | 100 Max ([1]; uniprot Q14689): 39.34 | 100 ave ([1]; uniprot Q14689): 39.34 | 500 Max ([1]; uniprot Q14689): 91.21 | 500 ave ([1]; uniprot Q14689): 91.21 | 100 Max [2]: 5.3 | 100 ave [2]: −7.4 | 500 Max [2]: 21.5 | 500 ave [2]: 21.5 | Liganded [3]: YES | 100 ave ([3]; uniprot P03915): 83.61 | 100 Max ([3]; uniprot P03915, in % (unit assumed)): 83.61 | 100 Max (RNF7 RING-box protein 2; uniprot Q9UBF6): 20.4 | 100 ave (RNF7 RING-box protein 2; uniprot Q9UBF6): 20.4 | 100 Max ([4]; uniprot O15047): 15.12 | 100 ave ([4]; uniprot O15047): −0.4575 | 500 Max ([4]; uniprot O15047): 40.15 | 500 ave ([4]; uniprot O15047): 38.365 | Liganded ([5]; TUBA3D Res# 4, uniprot Q13748): YES | Liganded ([5]; TUBA3D Res# 20, uniprot Q13748): YES | 100 ave ([6]; uniprot O95071): −2.4 | 500 Max ([6]; uniprot O95071): 33.0 | 500 ave ([6]; uniprot O95071): 26.8 | 100 Max ([6]; uniprot O95071, unit assumed): 9.2%
